Measured values published in patent US7884136B2, “Modified-release formulations of a bupropion salt” (Biovail Laboratories International S.R.L., priority 2005, dated 2011).

Test: Accelerated stability study of bupropion HBr, closed bottles, 40° C./75% RH, 3 and 6 months, HPLC
Format: physicochemical
Conditions: 40° C., R.H. 75%; for Chromatographic purity B) (HPLC) 4) 2-N-(tert-Butyl)-aminopropiophenone / Chromatographic purity B) (HPLC) 5) single unknown impurity (each): LOQ 0.02%, LOD 0.002%; for Chromatographic purity A) (HPLC) 1) 3′-Chloropropiophenone / Chromatographic purity A) (HPLC) 3) 3′-Chlorobenzoic acid / Chromatographic purity A) (HPLC) 2) 3′-Chloro-2-bromopropiophenone: LOQ 0.05%; for Chromatographic purity A) (HPLC) 1) 3′-Chloropropiophenone / Chromatographic purity A) (HPLC) 3) 3′-Chlorobenzoic acid: LOD 0.01%; for Chromatographic purity A) (HPLC) 2) 3′-Chloro-2-bromopropiophenone: LOD 0.04%
Experimental: The samples were prepared in closed bottles and placed in the stability chamber. HPLC analysis was conducted on the samples prior to placing them in the stability chamber (time 0), and after 3 months and 6 months. The amounts of the main degradation products present at time 0 were compared with those amounts present after 3 months and 6 months. […] For each sample tested, at each time period, two different HPLC assays were run. The first assay labelled chromatographic purity A, measured the percentage of three impurities 3′chloropropiophenone, 3′-Chloro-2-bromopropiophenone and 3′-Chlorobenzoic acid. The second assay, labelled chromatographic purity B, measured the percentage of 2-N-(tert-Butyl)-aminopropiophenone, a single unknown impurity and the total unknown impurities.

Br.CC(NC(C)(C)C)C(=O)c1cccc(Cl)c1 (stereo not drawn) [Bupropion•HBr]
Assay (HPLC) (Batch D00895, 3 month): 100.7 % on d.b. | Chromatographic purity (HPLC: A + B) Total impurities (Batch D00895, 3 month): 0.1% | Chromatographic purity B) (HPLC) 6) total unknown impurities (Batch D00895, 3 month): 6) 0.05% | Description (white or almost white crystalline powder) (Batch D00895, 3 month): conform | Identification IR, HPLC (Batch D00895, 3 month): positive | Water content (K.F.) (Batch D00895, 3 month): 0.07% | Chromatographic purity B) (HPLC) 4) 2-N-(tert-Butyl)-aminopropiophenone (Batch D00895, 3 month): 4) 0.03% | Chromatographic purity B) (HPLC) 5) single unknown impurity (each) (Batch D00895, 3 month): 5) 0.04% | Chromatographic purity A) (HPLC) 1) 3′-Chloropropiophenone (Batch D00895, 3 month): 1) n.q. | Chromatographic purity A) (HPLC) 3) 3′-Chlorobenzoic acid (Batch D00895, 3 month): 3) 0.05% | Chromatographic purity A) (HPLC) 2) 3′-Chloro-2-bromopropiophenone (Batch D00895, 3 month): 2) n.d. | Assay (HPLC) (Batch D00895, 6 months): 99.7 % on d.b. | Chromatographic purity (HPLC: A + B) Total impurities (Batch D00895, 6 months): 0.1% | Chromatographic purity B) (HPLC) 6) total unknown impurities (Batch D00895, 6 months): 6) 0.02% | Description (white or almost white crystalline powder) (Batch D00895, 6 months): conform | Identification IR, HPLC (Batch D00895, 6 months): positive | Water content (K.F.) (Batch D00895, 6 months): 0.07% | Chromatographic purity B) (HPLC) 4) 2-N-(tert-Butyl)-aminopropiophenone (Batch D00895, 6 months): 4) 0.04% | Chromatographic purity B) (HPLC) 5) single unknown impurity (each) (Batch D00895, 6 months): 5) n.q. | Chromatographic purity A) (HPLC) 1) 3′-Chloropropiophenone (Batch D00895, 6 months): 1) 0.05% | Chromatographic purity A) (HPLC) 3) 3′-Chlorobenzoic acid (Batch D00895, 6 months): 3) n.q. | Chromatographic purity A) (HPLC) 2) 3′-Chloro-2-bromopropiophenone (Batch D00895, 6 months): 2) n.d. | Assay (HPLC) (Batch D00895, time 0): 99.2 % on d.b. | Chromatographic purity (HPLC: A + B) Total impurities (Batch D00895, time 0): 0.1% | Chromatographic purity B) (HPLC) 6) total unknown impurities (Batch D00895, time 0): 6) 0.04% | Description (white or almost white crystalline powder) (Batch D00895, time 0): conform | Identification IR, HPLC (Batch D00895, time 0): positive | Water content (K.F.) (Batch D00895, time 0): 0.04% | Chromatographic purity B) (HPLC) 4) 2-N-(tert-Butyl)-aminopropiophenone (Batch D00895, time 0): 4) 0.04% | Chromatographic purity B) (HPLC) 5) single unknown impurity (each) (Batch D00895, time 0): 5) 0.04% | Chromatographic purity A) (HPLC) 1) 3′-Chloropropiophenone (Batch D00895, time 0): 1) n.d. | Chromatographic purity A) (HPLC) 3) 3′-Chlorobenzoic acid (Batch D00895, time 0): 3) n.q. | Chromatographic purity A) (HPLC) 2) 3′-Chloro-2-bromopropiophenone (Batch D00895, time 0): 2) n.d. | Assay (HPLC) (Batch D00896, 3 month): 100.0 % on d.b. | Chromatographic purity (HPLC: A + B) Total impurities (Batch D00896, 3 month): 0.1% | Chromatographic purity B) (HPLC) 6) total unknown impurities (Batch D00896, 3 month): 6) 0.05% | Description (white or almost white crystalline powder) (Batch D00896, 3 month): conform | Identification IR, HPLC (Batch D00896, 3 month): positive | Water content (K.F.) (Batch D00896, 3 month): 0.11% | Chromatographic purity B) (HPLC) 4) 2-N-(tert-Butyl)-aminopropiophenone (Batch D00896, 3 month): 4) 0.03% | Chromatographic purity B) (HPLC) 5) single unknown impurity (each) (Batch D00896, 3 month): 5) 0.04% | Chromatographic purity A) (HPLC) 1) 3′-Chloropropiophenone (Batch D00896, 3 month): 1) n.q. | Chromatographic purity A) (HPLC) 3) 3′-Chlorobenzoic acid (Batch D00896, 3 month): 3) n.q. | Chromatographic purity A) (HPLC) 2) 3′-Chloro-2-bromopropiophenone (Batch D00896, 3 month): 2) n.d. | Assay (HPLC) (Batch D00896, 6 months): 100.4 % on d.b. | Chromatographic purity (HPLC: A + B) Total impurities (Batch D00896, 6 months): 0.1% | Chromatographic purity B) (HPLC) 6) total unknown impurities (Batch D00896, 6 months): 6) n.q. | Description (white or almost white crystalline powder) (Batch D00896, 6 months): conform | Identification IR, HPLC (Batch D00896, 6 months): positive | Water content (K.F.) (Batch D00896, 6 months): 0.04% | Chromatographic purity B) (HPLC) 4) 2-N-(tert-Butyl)-aminopropiophenone (Batch D00896, 6 months): 4) 0.04% | Chromatographic purity B) (HPLC) 5) single unknown impurity (each) (Batch D00896, 6 months): 5) n.q. | Chromatographic purity A) (HPLC) 1) 3′-Chloropropiophenone (Batch D00896, 6 months): 1) 0.05% | Chromatographic purity A) (HPLC) 3) 3′-Chlorobenzoic acid (Batch D00896, 6 months): 3) n.q. | Chromatographic purity A) (HPLC) 2) 3′-Chloro-2-bromopropiophenone (Batch D00896, 6 months): 2) n.d. | Assay (HPLC) (Batch D00896, Time 0): 99.3 % on d.b. | Chromatographic purity (HPLC: A + B) Total impurities (Batch D00896, Time 0): 0.1% | Chromatographic purity B) (HPLC) 6) total unknown impurities (Batch D00896, Time 0): 6) 0.05% | Description (white or almost white crystalline powder) (Batch D00896, Time 0): conform | Identification IR, HPLC (Batch D00896, Time 0): positive | Water content (K.F.) (Batch D00896, Time 0): 0.06% | Chromatographic purity B) (HPLC) 4) 2-N-(tert-Butyl)-aminopropiophenone (Batch D00896, Time 0): 4) 0.04% | Chromatographic purity B) (HPLC) 5) single unknown impurity (each) (Batch D00896, Time 0): 5) 0.05% | Chromatographic purity A) (HPLC) 1) 3′-Chloropropiophenone (Batch D00896, Time 0): 1) n.d. | Chromatographic purity A) (HPLC) 3) 3′-Chlorobenzoic acid (Batch D00896, Time 0): 3) n.q. | Chromatographic purity A) (HPLC) 2) 3′-Chloro-2-bromopropiophenone (Batch D00896, Time 0): 2) n.d.
